In ChEMBL document CHEMBL3585332, “Antimalarial Isocyano and Isothiocyanato Sesquiterpenes with Tri- and Bicyclic Skeletons from the Nudibranch Phyllidia ocellata” (J Nat Prod, 2015):

Legend:
[1] = system: Plasmodium falciparum; assay: Antimalarial activity against drug-resistant asynchronous Plasmodium falciparum Dd2 infected in erythrocytes assessed as parasite growth inhibition at 10 uM after 48 hrs by [3H]-hypoxanthine incorporation assay relative to control; assay type: functional; details: read-out: GI
[2] = system: Plasmodium falciparum; assay: Antimalarial activity against chloroquine-sensitive asynchronous Plasmodium falciparum 3D7 infected in erythrocytes assessed as parasite growth inhibition after 48 hrs by [3H]-hypoxanthine incorporation assay; assay type: functional, organism-based
[3] = system: Plasmodium falciparum; assay: Antimalarial activity against drug-resistant asynchronous Plasmodium falciparum Dd2 infected in erythrocytes assessed as parasite growth inhibition after 48 hrs by [3H]-hypoxanthine incorporation assay; assay type: functional, organism-based
[4] = Selectivity ratio of IC50 for human NFF to IC50 for chloroquine-sensitive asynchronous Plasmodium falciparum 3D7
[5] = Selectivity ratio of IC50 for human NFF to IC50 for drug-resistant asynchronous Plasmodium falciparum Dd2

Row | SMILES | inhibition of growth at 10 µM [1] [%] | IC50 [2] [nM] | IC50 [3] [nM] | Ratio IC50 [4] | Ratio IC50 [5]
1 | CC1(C)C=C(NC=O)[C@]23CCC[C@](C)(CC[C@@H]12)C3 | < 50 | > 10000 |  |  | 
2 | [C-]#[N+][C@]1(C)[C@H](C)C[C@@H]2C[C@H](C)[C@H]3CC[C@](C)([N+]#[C-])[C@H]4CC[C@H]1[C@@H]2[C@H]34 [DIISOCYANOADOCIANE] | 98.3 |  |  |  | 
3 | [C-]#[N+][C@@H]1CCC(C)=C[C@@H]2[C@@H](C(C)C)CC[C@]21C | 98.3 | 260 | 870 | 45 | 45
4 | [C-]#[N+][C@@H]1CC(C)(C)[C@@H]2CC[C@@]3(C)CCC[C@@]12C3 | 98.3 | 290 | 830 | 45 | 45
5 | [C-]#[N+][C@@H]1[C@H]2C(=C)CCC[C@]2(C)CC[C@H]1C(C)C | 98.3 |  |  |  | 
6 | [C-]#[N+][C@@H]1[C@H](C(C)C)CC[C@@H](C)[C@@]12C=C(C)CC2 [AXISONITRILE 3] | 98.3 |  |  |  | 
7 | CC1(C)C[C@@H]2[C@H]1CC[C@@]1(C)CCC[C@]2(N=C=S)C1 | < 50 | > 10000 |  |  | 
8 | [C-]#[N+]C1=CC(C)(C)[C@@H]2CC[C@@]3(C)CCC[C@@]12C3 | 98.3 | 300 | 360 | 45 | 45
